15 compounds from patent US7825139B2, “Compounds and methods for selective inhibition of dipeptidyl peptidase-IV” (Forest Laboratories Holdings Limited (BM), priority 2005, dated 2010) can be followed below.

One series addresses T1, DPP-VII (Homo sapiens, UniProt Q9UHL4).
T1 construct: The full length cDNAs for human DPP-VII, DPP-VIII, DPP-IX, and FAP were obtained from Open Biosystems; FLAG (N); made in house
Briefly: DPP-VII IC50 assay (Lys-Pro AMC), selectivity versus DPP-IV. The conditions noted are these: IC50 of DPP-VII divided by IC50 for DPP-IV. Format: biochemical. From the text:
(§1) The term “selectivity ratio” refers to the IC50 value generated in a biochemical assay measuring inhibition of DPP-IV compared to the IC50 value generated in a biochemical assay measuring inhibition of another DPP family member (e.g. DPP-VII, DPP-VIII, DPP-IX or FAP) whereby the ratio is obtained by dividing the IC50 value of DPP-VII, DPP-VIII, DPP-IX or FAP by the IC50 value for DPP-IV.
(§2) Materials. S9 insect cells and Sf-900 II SFM media were from Invitrogen. Anti-FLAG M2 immunoaffinity gel was from Sigma. Gly-Pro-AMC, Lys-Pro AMC, and Ala-Pro AMC were from Enzyme Systems. IC50 calculations were performed by non-linear regression analysis using Prism software (GraphPad). Preparation of DPP-VII, DPP-VIII, DPP-IX, and FAP baculovirus constructs. The full length cDNAs for human DPP-VII, DPP-VIII, DPP-IX, and FAP were obtained from Open Biosystems. […] Baculovirus was prepared using the Bac-to-Bac Baculovirus Expression System (Invitrogen). The cDNAs in the final baculovirus constructs were sequence verified. Baculovirus expression. […] Infection with DPP-VII, DPP-VIII, DPP-IX, and FAP baculoviral constructs were all performed at an MOI of 4. The infected cells were grown for 48 hours and the cell pellets harvested and frozen until purification. DPP-VII was purified using anti-FLAG immunoaffinity gel according to the manufacturer's instructions. DPP-VIII, DPP-IX, and FAP were purified using a B-PER 6xHis Fusion Protein Column Purification Kit from Pierce. IC50 assay. Recombinant DPPs were diluted in reaction buffer to give fluorescence values of 5000-20000 counts in the “enzyme only wells” 20 min after addition of substrate at 27° C. Reaction buffers were 25 mM (2-(4-Morpholino)-Ethane Sulfonic Acid), pH 5.5 for DPP-VII, 25 mM Tris, pH 8, 1% Triton X-100, 100 mM NaCl for DPP-VIII, and 25 mM Tris pH 8 for DPP-1× and FAP. Test wells in a 96-well microtiter plate contained 88 μL of diluted DPP and 2.5 ul of titrated compound in 50 mM glycine, pH 2.6. “Enzyme only” wells contained 88 uL of diluted DPP and 2.5 ul of glycine buffer. “No enzyme” wells contained 88 uL of reaction buffer without DPP and 2.5 ul of glycine buffer. All assays were done in triplicate. The plate was incubated at 27° C. for 10 min and then cooled on ice for 10 min. Ten microliters of substrate diluted in reaction buffer (40 uM final concentration) without Triton or NaCl were then added to all wells followed by incubation at 27C for 20 min. Substrates were Lys-Pro AMC for DPP-VII, and Ala-Pro AMC for DPP-VIII, DPP-IX, and FAP. Fluorescence in each well was measured at settings of 380/460 nm.

The next series has as its target T2, DPP-VIII (Homo sapiens, UniProt Q6V1X1).
T2 construct: The full length cDNAs for human DPP-VII, DPP-VIII, DPP-IX, and FAP were obtained from Open Biosystems; 6xHis (C); made in house
Kind of series: DPP-VIII IC50 assay (Ala-Pro AMC), selectivity versus DPP-IV. In kind it is biochemical. The settings on record: IC50 of DPP-VIII divided by IC50 for DPP-IV.
Description: as §1, §2

The next series has as its target T3, FAP (Homo sapiens, UniProt Q12884).
T3 construct: The full length cDNAs for human DPP-VII, DPP-VIII, DPP-IX, and FAP were obtained from Open Biosystems; 6xHis (N); made in house
T3 sequence (Q12884 1-760): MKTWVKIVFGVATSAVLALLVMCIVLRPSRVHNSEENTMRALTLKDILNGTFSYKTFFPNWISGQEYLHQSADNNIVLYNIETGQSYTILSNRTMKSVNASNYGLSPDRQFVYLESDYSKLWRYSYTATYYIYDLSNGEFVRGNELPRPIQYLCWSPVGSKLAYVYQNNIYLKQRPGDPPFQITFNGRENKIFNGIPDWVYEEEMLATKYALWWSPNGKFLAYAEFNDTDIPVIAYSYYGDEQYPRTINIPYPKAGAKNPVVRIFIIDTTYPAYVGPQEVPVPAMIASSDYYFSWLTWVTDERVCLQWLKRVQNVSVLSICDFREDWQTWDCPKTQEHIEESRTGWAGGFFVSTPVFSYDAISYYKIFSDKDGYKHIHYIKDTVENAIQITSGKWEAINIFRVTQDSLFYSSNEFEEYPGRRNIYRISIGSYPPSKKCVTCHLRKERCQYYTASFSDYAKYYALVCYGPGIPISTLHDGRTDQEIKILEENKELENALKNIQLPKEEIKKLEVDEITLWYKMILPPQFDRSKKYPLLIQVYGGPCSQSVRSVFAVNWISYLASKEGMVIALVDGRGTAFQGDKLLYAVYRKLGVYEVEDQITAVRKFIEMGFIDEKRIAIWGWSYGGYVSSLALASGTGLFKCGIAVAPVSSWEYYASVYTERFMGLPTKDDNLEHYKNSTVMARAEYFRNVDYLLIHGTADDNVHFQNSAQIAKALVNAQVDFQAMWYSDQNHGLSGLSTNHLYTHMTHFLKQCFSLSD
Kind of series: FAP IC50 assay (Ala-Pro AMC), selectivity versus DPP-IV. Format: biochemical. The settings on record: IC50 of FAP divided by IC50 for DPP-IV.
Description: as §1, §2

The test system of a further series is Zucker Obese Fatty rats. Kind of series: Toxicity in rats, oral dosing. In kind it is in vivo, rat. The settings on record: 1 mg/kg, 4-24 hrs post-dose, all Zucker Obese Fatty rats tested. An excerpt:
Toxicity in Rats: The Zucker Diabetic Fatty (ZDF) rat model can be used to investigate the effects of the compounds of the invention on both the treatment and prevention of diabetes as rats of this sub-strain are initially pre-diabetic although they develop severe type 2 diabetes characterized by increased HbAl c levels over a period of 6 weeks. The same strain can be used to predict the clinical efficacy of other anti-diabetic drug types. For example, the model predicts the potency and limited clinical efficacy of thiazolidinedione insulin sensitizer compounds. The experimental protocol requires p.o. (oral gavage) administration of either vehicle or test article at indicated doses either QD or BID using a gastric feeding needle with a ball tip, without anesthesia, using hand restraint to adult rats which have been fasted overnight. Animals are monitored for clinical signs at 1, 2, 4 and 8 hour time intervals following the treatment regimen. Whole blood samples (to a maximum level of 10% of the total blood volume every 2 weeks) were collected from the animals from the retro-orbital sinus in accordance with the guidelines of the IACUC committee.
The expected therapeutic dose level could not be reached for the comparative compounds before acute toxicity was observed.

T2 sequence (Q6V1X1 whole entry): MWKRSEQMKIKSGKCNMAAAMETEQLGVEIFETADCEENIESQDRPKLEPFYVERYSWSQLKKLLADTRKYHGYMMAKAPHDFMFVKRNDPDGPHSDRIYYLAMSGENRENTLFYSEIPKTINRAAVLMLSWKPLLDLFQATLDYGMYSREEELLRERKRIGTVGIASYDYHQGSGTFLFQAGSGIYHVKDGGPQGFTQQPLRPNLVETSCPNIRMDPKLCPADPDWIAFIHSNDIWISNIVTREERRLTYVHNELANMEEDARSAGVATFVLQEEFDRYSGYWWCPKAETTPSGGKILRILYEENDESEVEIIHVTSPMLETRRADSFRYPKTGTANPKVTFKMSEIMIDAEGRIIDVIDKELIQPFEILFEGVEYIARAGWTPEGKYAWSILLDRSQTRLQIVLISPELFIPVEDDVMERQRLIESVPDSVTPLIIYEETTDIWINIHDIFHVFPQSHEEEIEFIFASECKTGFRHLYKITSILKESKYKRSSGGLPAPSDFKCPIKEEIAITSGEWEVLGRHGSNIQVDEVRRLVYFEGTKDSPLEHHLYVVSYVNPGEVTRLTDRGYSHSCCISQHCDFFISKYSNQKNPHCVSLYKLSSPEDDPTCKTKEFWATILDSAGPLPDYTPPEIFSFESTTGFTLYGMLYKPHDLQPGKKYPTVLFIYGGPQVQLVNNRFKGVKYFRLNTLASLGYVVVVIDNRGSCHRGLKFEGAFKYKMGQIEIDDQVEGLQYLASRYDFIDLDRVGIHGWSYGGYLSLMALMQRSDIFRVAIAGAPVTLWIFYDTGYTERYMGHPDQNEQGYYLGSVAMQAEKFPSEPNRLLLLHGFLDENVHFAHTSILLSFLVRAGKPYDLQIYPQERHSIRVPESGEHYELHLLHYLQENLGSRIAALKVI

In the case of `N[C@@H]1CCN(S(=O)(=O)c2ccccc2)C[C@H]1C(=O)N1CCC[C@H]1B(O)O` [Compound 6, (2R)-1-[(3R,4R)-4-amino-1-Benzenesulfonyl-piperidine-3-carbonyl]-boroPro-OH], the “Selectivity Ratios DPP-VII” value on DPP-VII was “E (E > 100)”. Further, the “Selectivity Ratios DPP-VIII” value on DPP-VIII was “D (50 < D ≦ 100)”. Further, the “Selectivity Ratios FAP” value at FAP was “E (E > 100)”.

For `CS(=O)(=O)N1CC[C@@H](N)[C@H](C(=O)N2CCC[C@H]2B(O)O)C1` [Compound 7, (2R)-1-[(3R,4R)-4-amino-1-methanesulfonyl-piperidine-3-carbonyl]-boroPro-OH], the “Selectivity Ratios DPP-VII” value on DPP-VII is on record as “E (E > 100)”. The “Selectivity Ratios DPP-VIII” value on DPP-VIII is listed as “C (10 < C ≦ 50)”. The “Selectivity Ratios FAP” value on FAP was “E (E > 100)”.

Regarding `N[C@@H]1CCN(S(=O)(=O)c2ccc(F)cc2)C[C@H]1C(=O)N1CCC[C@H]1B(O)O` [Compound 8, (2R)-1-[(3R,4R)-4-amino-1-(4-fluoro-benzenesulfonyl)-piperidine-3-carbonyl]-boroPro-OH], the “Selectivity Ratios DPP-VII” value at DPP-VII is reported as “E (E > 100)”. At DPP-VIII, the “Selectivity Ratios DPP-VIII” value is “D (50 < D ≦ 100)”. Besides, at FAP, the “Selectivity Ratios FAP” value was “D (50 < D ≦ 100)”.

As to `N[C@@H]1CCN(S(=O)(=O)c2cccc(F)c2)C[C@H]1C(=O)N1CCC[C@H]1B(O)O` [Compound 9, (2R)-1-[(3R,4R)-4-amino-1-(3-fluoro-benzenesulfonyl)-piperidine-3-carbonyl]-boroPro-OH], the “Selectivity Ratios DPP-VII” value at DPP-VII is given as “E (E > 100)”. Also, the “Selectivity Ratios DPP-VIII” value on DPP-VIII was “D (50 < D ≦ 100)”. Moreover, the “Selectivity Ratios FAP” value on FAP is listed as “D (50 < D ≦ 100)”.

Take `N[C@@H]1CCN(S(=O)(=O)c2ccccc2F)C[C@H]1C(=O)N1CCC[C@H]1B(O)O` [Compound 10, (2R)-1-[(3R,4R)-4-amino-1-(2-fluoro-benzenesulfonyl)-piperidine-3-carbonyl]-boroPro-OH]: on DPP-VII, the “Selectivity Ratios DPP-VII” value is “E (E > 100)”. For the same compound, the “Selectivity Ratios DPP-VIII” value at DPP-VIII is given as “C (10 < C ≦ 50)”. In addition, at FAP, the “Selectivity Ratios FAP” value is “D (50 < D ≦ 100)”.

As for `N[C@@H]1CCN(S(=O)(=O)c2ccc(F)cc2F)C[C@H]1C(=O)N1CCC[C@H]1B(O)O` [Compound 11, (2R)-1-[(3R,4R)-4-amino-1-(2,4-difluoro-benzenesulfonyl)-piperidine-3-carbonyl]-boroPro-OH], the “Selectivity Ratios DPP-VII” value on DPP-VII is recorded as “E (E > 100)”. Moreover, the “Selectivity Ratios DPP-VIII” value at DPP-VIII is “D (50 < D ≦ 100)”. In addition, the “Selectivity Ratios FAP” value on FAP is “E (E > 100)”.

In the case of `N[C@@H]1CCN(S(=O)(=O)c2cc(F)c(F)cc2F)C[C@H]1C(=O)N1CCC[C@H]1B(O)O` [Compound 12, (2R)-1-[(3R,4R)-4-amino-1-(2,4,5-trifluoro-benzenesulfonyl)-piperidine-3-carbonyl]-boroPro-OH], the “Selectivity Ratios DPP-VII” value on DPP-VII is “C (10 < C ≦ 50)”. In addition, the “Selectivity Ratios DPP-VIII” value on DPP-VIII is “C (10 < C ≦ 50)”. Also, on FAP, the “Selectivity Ratios FAP” value was “C (10 < C ≦ 50)”.

`CS(=O)(=O)c1ccc(S(=O)(=O)N2CC[C@@H](N)[C@H](C(=O)N3CCC[C@H]3B(O)O)C2)cc1` [Compound 13, (2R)-1-[(3R,4R)-4-amino-1-(4-methanesulfonyl-benzenesulfonyl)-piperidine-3-carbonyl]-boroPro-OH]: the “Selectivity Ratios DPP-VII” value on DPP-VII is on record as “E (E > 100)”. Also, on DPP-VIII, the “Selectivity Ratios DPP-VIII” value was “D (50 < D ≦ 100)”. Further, the “Selectivity Ratios FAP” value at FAP is recorded as “E (E > 100)”.

`N[C@@H]1CN(S(=O)(=O)c2cccc3ccccc23)CC[C@H]1C(=O)N1CCC[C@H]1B(O)O` [Compound 14, (2R)-1-[(3R,4R)-4-amino-1-(naphthalene-1-sulfonyl)-piperidine-3-carbonyl]-boroPro-OH]: the “Selectivity Ratios DPP-VII” value on DPP-VII is on record as “C (10 < C ≦ 50)”. At DPP-VIII, the “Selectivity Ratios DPP-VIII” value was “C (10 < C ≦ 50)”. Further, on FAP, the “Selectivity Ratios FAP” value is given as “C (10 < C ≦ 50)”.

In the case of `N[C@@H]1CCN(S(=O)(=O)c2ccc(-c3ccccc3)cc2)C[C@H]1C(=O)N1CCC[C@H]1B(O)O` [Compound 16, (2R)-1-[(3R,4R)-4-amino-1-(biphenyl-4-sulfonyl)-piperidine-3-carbonyl]-boroPro-OH], the “Selectivity Ratios DPP-VII” value on DPP-VII is on record as “E (E > 100)”. Further, on DPP-VIII, the “Selectivity Ratios DPP-VIII” value is “E (E > 100)”. Moreover, on FAP, the “Selectivity Ratios FAP” value is recorded as “C (10 < C ≦ 50)”.

For `N[C@@H]1CCN(S(=O)(=O)c2cccc(-c3ccccc3)c2)C[C@H]1C(=O)N1CCC[C@H]1B(O)O` [Compound 17, (2R)-1-[(3R,4R)-4-amino-1-(biphenyl-3-sulfonyl)-piperidine-3-carbonyl]-boroPro-OH], at DPP-VII, the “Selectivity Ratios DPP-VII” value is on record as “C (10 < C ≦ 50)”. Besides, the “Selectivity Ratios DPP-VIII” value on DPP-VIII is listed as “E (E > 100)”. Moreover, the “Selectivity Ratios FAP” value on FAP is recorded as “C (10 < C ≦ 50)”.

With `CC(C)S(=O)(=O)N1CC[C@@H](N)[C@H](C(=O)N2CCC[C@H]2B(O)O)C1` [Compound 18, (2R)-1-[(3R,4R)-4-amino-1-(propane-2-sulfonyl)-piperidine-3-carbonyl]-boroPro-OH], on DPP-VII, the “Selectivity Ratios DPP-VII” value is on record as “C (10 < C ≦ 50)”. Moreover, the “Selectivity Ratios DPP-VIII” value at DPP-VIII is reported as “C (10 < C ≦ 50)”. Further, at FAP, the “Selectivity Ratios FAP” value was “D (50 < D ≦ 100)”.

As for `O=C(CNC1CCNCC1)N1CCC[C@H]1B(O)O` [Compound 20, reference compound], the “Selectivity Ratios DPP-VII” value at DPP-VII is “A (A ≦ 1)”. In addition, on DPP-VIII, the “Selectivity Ratios DPP-VIII” value is given as “B (1 < B ≦ 10)”. In addition, at FAP, the “Selectivity Ratios FAP” value is “E (E > 100)”.

On to `Cl.O=C(CN[C@@H]1CCCNC1)N1CCC[C@H]1B(O)O` [Compound 21, reference compound], for which the “Selectivity Ratios DPP-VII” value on DPP-VII was “A (A ≦ 1)”. Further, the “Selectivity Ratios DPP-VIII” value at DPP-VIII is given as “B (1 < B ≦ 10)”. In addition, the “Selectivity Ratios FAP” value on FAP was “C (10 < C ≦ 50)”.

Take `CC(C)[C@H](N)C(=O)N1CCC[C@H]1B(O)O` [PT100]: in the series on Zucker Obese Fatty rats, the “acute toxicity in rats” value is listed as “acute toxicity (death)”.
